Data from BindingDB's records for doi:10.1021/jm00403a015 (Washington State University, 1988).

Molecular target: Cytidine deaminase (Mus musculus) (UniProt P56389)
Assay: Inhibition of cytidine deaminase enzyme obtained from mouse kidney

Chain of Cytidine deaminase (Mus musculus) (P56389 whole entry, looked up): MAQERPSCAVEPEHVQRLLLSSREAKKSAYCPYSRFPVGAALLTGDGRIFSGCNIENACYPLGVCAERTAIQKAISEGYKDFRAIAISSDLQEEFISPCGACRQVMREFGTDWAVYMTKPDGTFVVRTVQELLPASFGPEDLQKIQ

Work on `[O-][S+]1C=CN(C2O[C@H](CO)[C@@H](O)[C@H]2O)C(O)=C1` (stereo partly specified) yielded a Ki of 330 µM.
